Results taken from patent publication US20090110720A1, “Use of compounds for the prevention of drug-induced cell toxicity” (priority 2005, published 2009).

Target: megalin (Oryctolagus cuniculus, UniProt Z9GY10I8Y6)
Experiment: Inhibition of gentamicin binding to immobilized megalin by surface plasmon resonance (Biacore 2000)
Conditions: 1 mM gentamicin co-injected; megalin purified from rabbit kidneys immobilized on chip; pH 7.4 buffer; FIG. 3; read-out: antagonist concentration at which 50% inhibition of gentamicin binding is obtained
Protocol: Inhibition of gentamicin binding to immobilized megalin by p-xylylene diamine was assessed by surface plasmon resonance (SPR) analysis on a Biacore 2000 instrument (Biacore, Uppsala, Sweden). Megalin purified from rabbit kidneys as described in Birn et al. (J. Biol. Chem., 1997, Vol. 272, No. 42, 26497-26504) was immobilized in a concentration of 28-40 fmol/mm^2. Samples were dissolved in 10 mM Hepes, 150 mM NaCl, 1.5 mM CaCl2, 1 mM EGTA, 0.005% Tween-20 pH 7.4. The same buffer was used as running buffer. At time zero, p-xylylene diamine at the concentrations indicated (FIG. 3) were applied to the chip and binding as expressed in relative response units (RU), i.e. the difference in response between megalin and a control flow channel, was measured. After 700 sec., 1 mM gentamicin was co-injected with buffer alone or various concentrations of p-xylylene diamine. Inhibition of gentamicin binding is scored as the difference in RU units obtained by injection of gentamicin alone and in the presence of the antagonist. Regeneration of the sensor chip after each analysis cycle was performed with 1.6 M glycine-HCl buffer pH 3.0.
50% inhibition is obtained at an antagonist concentration of about 0.1 mM.

megalin, sequence (Z9GY10I8Y6 26-4660 limits assumed): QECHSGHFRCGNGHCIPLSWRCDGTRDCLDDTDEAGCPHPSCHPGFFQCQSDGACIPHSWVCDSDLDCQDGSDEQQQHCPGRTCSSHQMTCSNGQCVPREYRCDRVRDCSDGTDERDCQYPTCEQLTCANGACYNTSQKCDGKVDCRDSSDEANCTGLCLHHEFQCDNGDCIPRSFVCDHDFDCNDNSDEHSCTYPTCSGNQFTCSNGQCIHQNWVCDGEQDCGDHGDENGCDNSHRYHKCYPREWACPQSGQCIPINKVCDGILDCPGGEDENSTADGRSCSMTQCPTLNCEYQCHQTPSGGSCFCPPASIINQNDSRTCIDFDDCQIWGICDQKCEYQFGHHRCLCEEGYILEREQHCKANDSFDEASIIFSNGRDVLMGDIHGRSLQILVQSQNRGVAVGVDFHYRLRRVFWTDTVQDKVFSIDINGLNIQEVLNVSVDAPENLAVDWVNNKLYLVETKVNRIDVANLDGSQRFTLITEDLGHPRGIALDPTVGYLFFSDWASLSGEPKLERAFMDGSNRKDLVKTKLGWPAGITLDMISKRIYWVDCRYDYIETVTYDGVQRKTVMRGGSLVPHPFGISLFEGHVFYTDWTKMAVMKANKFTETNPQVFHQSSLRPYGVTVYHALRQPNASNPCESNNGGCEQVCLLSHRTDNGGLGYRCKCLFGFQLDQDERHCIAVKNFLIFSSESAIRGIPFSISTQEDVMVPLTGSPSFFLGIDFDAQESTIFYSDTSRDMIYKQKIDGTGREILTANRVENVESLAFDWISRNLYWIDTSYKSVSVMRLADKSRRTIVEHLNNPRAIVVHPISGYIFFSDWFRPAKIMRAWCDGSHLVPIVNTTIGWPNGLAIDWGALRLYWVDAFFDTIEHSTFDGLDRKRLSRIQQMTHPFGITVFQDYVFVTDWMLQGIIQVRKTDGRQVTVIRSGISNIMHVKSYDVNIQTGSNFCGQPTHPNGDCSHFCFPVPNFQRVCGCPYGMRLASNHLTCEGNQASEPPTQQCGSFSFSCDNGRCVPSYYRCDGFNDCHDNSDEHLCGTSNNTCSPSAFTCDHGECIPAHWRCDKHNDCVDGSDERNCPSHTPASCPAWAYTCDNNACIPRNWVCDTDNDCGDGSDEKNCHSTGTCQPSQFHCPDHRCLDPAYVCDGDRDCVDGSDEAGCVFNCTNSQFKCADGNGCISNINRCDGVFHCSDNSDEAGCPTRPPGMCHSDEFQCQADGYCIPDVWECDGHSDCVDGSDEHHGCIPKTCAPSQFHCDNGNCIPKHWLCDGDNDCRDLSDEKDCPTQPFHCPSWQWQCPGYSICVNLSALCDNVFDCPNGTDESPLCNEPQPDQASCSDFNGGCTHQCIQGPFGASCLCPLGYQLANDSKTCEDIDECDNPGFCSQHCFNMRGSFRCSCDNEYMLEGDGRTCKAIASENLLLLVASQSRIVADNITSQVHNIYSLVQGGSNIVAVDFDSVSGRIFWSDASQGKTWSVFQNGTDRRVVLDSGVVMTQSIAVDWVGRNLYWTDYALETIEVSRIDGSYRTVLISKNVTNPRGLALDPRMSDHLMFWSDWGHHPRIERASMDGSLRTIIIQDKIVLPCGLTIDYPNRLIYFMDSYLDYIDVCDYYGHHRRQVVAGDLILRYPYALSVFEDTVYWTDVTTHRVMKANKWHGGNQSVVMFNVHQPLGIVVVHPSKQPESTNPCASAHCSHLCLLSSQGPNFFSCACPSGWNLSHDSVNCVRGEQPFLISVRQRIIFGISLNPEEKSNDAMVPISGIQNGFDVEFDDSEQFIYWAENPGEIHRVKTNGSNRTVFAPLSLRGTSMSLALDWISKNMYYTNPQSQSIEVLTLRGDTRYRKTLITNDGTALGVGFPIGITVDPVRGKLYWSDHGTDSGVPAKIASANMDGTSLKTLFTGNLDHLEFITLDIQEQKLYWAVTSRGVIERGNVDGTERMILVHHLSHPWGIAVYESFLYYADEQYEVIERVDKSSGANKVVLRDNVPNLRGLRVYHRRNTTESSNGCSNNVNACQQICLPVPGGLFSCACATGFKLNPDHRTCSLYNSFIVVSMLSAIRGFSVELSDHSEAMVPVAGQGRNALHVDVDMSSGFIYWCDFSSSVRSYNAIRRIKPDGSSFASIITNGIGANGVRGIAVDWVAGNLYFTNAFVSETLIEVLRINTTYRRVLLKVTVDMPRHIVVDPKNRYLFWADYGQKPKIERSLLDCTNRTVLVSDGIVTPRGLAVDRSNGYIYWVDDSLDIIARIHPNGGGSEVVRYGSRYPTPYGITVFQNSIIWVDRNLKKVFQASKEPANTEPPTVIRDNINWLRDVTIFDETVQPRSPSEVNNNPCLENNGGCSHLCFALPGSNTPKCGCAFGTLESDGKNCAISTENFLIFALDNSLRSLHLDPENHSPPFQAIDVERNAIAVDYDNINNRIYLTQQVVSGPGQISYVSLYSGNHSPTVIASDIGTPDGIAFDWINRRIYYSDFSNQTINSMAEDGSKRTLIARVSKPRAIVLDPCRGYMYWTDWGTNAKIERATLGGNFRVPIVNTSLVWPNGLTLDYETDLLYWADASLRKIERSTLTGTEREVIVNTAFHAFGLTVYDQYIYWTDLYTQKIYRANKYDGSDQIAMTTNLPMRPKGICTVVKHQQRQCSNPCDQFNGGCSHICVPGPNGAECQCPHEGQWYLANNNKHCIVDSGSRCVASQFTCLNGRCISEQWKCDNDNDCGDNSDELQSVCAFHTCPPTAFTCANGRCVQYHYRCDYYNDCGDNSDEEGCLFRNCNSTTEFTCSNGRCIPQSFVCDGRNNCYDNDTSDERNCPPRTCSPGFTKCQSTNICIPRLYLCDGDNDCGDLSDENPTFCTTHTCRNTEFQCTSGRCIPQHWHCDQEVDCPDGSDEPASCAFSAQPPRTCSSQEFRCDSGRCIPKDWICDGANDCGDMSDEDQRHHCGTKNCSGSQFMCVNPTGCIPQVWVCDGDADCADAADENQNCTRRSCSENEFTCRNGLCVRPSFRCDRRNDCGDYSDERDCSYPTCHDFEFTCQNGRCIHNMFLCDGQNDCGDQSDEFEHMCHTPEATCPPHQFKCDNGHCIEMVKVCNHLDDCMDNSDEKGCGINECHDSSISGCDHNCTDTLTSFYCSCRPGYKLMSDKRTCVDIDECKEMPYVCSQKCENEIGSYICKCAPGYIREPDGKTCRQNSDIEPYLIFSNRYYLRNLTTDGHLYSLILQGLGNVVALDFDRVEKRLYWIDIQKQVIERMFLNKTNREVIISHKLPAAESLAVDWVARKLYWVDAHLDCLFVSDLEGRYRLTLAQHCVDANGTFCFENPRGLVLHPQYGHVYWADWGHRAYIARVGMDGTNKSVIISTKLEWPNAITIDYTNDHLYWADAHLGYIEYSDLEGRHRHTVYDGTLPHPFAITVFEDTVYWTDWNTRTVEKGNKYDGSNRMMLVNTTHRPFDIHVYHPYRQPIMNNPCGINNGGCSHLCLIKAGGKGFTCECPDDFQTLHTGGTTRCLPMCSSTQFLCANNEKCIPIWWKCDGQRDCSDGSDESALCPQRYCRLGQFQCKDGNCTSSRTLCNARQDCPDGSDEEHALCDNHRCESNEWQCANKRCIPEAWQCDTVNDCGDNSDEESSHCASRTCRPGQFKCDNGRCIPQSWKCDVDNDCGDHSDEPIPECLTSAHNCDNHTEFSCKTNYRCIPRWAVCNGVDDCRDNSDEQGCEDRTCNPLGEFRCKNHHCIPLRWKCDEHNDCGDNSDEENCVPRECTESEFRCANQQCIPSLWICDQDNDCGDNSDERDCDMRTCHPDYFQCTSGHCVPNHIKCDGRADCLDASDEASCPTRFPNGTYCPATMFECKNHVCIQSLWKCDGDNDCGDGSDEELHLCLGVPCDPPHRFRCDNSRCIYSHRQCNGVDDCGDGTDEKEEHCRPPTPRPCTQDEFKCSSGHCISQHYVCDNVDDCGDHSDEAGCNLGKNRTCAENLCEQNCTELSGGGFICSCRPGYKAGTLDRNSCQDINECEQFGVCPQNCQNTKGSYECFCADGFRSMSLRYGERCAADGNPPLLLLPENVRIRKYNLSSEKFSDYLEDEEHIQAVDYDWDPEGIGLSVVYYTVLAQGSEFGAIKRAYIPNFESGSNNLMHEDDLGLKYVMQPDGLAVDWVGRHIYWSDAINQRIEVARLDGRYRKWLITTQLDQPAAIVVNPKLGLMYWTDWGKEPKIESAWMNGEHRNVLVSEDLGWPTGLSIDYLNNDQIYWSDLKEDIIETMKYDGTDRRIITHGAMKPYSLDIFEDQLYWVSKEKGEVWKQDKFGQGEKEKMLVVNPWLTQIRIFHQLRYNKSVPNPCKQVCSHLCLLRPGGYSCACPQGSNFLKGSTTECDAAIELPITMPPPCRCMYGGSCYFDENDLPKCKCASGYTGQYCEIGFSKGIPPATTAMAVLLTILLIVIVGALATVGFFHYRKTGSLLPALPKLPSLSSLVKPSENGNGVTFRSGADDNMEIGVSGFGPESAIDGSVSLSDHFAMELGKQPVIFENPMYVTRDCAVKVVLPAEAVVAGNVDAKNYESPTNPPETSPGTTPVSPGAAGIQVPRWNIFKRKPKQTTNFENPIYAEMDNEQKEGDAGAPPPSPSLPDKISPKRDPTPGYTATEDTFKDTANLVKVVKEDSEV

IC50: ~100 µM
SMILES: NCc1ccc(CN)cc1 [RC043, p-xylylene diamine]
